Results from patent US12384776B2, “Compounds and uses thereof” (Foghorn Therapeutics Inc., priority 2019, dated 2025).

Target: Nanoluciferase-BRD9 fusion protein (3×FLAG-NLuc-BRD9) in SYO-1 cells (Homo sapiens (Human), UniProt Q9H8M2)
Assay: SYO1 BRD9 NanoLuc degradation assay
Type: cell-based
Details: SYO-1 cells expressing 3×FLAG-NLuc-BRD9, 6 hours incubation, top dose 1 μM
In short: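 Degradation read as loss of NLuc signal after 6 h compound exposure (1 μM top final, 3-fold steps, 10 points, duplicates) in SYO-1 cells stably carrying 3×FLAG-NLuc-BRD9. Signal normalised between DMSO-treated cells and cells given 1 μM of a known BRD9 degrader.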

Sequence of Nanoluciferase-BRD9 fusion protein (3×FLAG-NLuc-BRD9) in SYO-1 cells (Q9H8M2 whole entry, the tested form may be a part): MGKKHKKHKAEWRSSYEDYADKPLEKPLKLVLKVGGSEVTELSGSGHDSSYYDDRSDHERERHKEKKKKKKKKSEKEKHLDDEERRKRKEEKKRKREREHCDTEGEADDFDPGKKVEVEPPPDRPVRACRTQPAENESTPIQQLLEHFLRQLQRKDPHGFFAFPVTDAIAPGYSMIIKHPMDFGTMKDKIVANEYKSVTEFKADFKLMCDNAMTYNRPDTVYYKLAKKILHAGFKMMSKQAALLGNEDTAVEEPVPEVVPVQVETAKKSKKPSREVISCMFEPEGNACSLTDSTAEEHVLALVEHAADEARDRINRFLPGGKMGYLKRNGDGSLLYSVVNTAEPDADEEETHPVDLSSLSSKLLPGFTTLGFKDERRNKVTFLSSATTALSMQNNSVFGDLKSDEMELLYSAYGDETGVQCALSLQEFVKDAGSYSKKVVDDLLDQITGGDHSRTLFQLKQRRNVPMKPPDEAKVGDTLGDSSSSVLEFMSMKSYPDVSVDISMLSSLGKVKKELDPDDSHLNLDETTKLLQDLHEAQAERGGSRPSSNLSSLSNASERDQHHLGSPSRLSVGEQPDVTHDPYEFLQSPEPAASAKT

| Structure (SMILES) | IC50 [nM] |
| --- | --- |
| CNC(=O)N1CCc2c(-c3cc(OC)c(CN4CC(C(C)(C)N5CCC6(CC5)CN(c5ccc7c(c5)C(=O)N(C5CCC(=O)NC5=O)C7=O)C6)C4)c(OC)c3)cn(C)c(=O)c2C1 (stereo not shown) [Compound D124] | < 10 |
| CNC(=O)N1CCc2c(-c3cc(OC)c(CN4CC(S(=O)(=O)NCCCCOc5ccc6c(c5)C(=O)N(C5CCC(=O)NC5=O)C6=O)C4)c(OC)c3)cn(C)c(=O)c2C1 (stereo not shown) [Compound D278] | 10 to 100 |
| CNC(=O)N1CCc2c(-c3cc(F)c(CN4CCC(CCN5CCN(c6ccc7c(c6)C(=O)N(C6CCC(=O)NC6=O)C7=O)CC5)CC4)c(OC)c3)cn(C)c(=O)c2C1 (stereo not shown) [Compound D91] | < 10 |
| CNC(=O)N1CCc2c(-c3cc(OC)c(CN(C)C45CC(C(=O)NCCCCCOc6cccc7c6C(=O)N(C6CCC(=O)NC6=O)C7=O)(C4)C5)c(OC)c3)cn(C)c(=O)c2C1 (stereo not shown) [Compound D283] | < 10 |
| COc1cc(-c2cn(C)c(=O)c3c2CCN(C(=O)NC2CC4CN(CCCCN5CCN(c6ccc7c(c6)C(=O)N(C6CCC(=O)NC6=O)C7=O)CC5)CC4C2)C3)cc(OC)c1CN(C)C (stereo not shown) [Compound D245] | 100 to 1000 |
| COc1cc(-c2cn(C)c(=O)c3c2CCN(C(=O)NCCN2CCC(OC4CCN(c5ccc6c(c5)C(=O)N(C5CCC(=O)NC5=O)C6=O)CC4)C2)C3)cc(OC)c1CN(C)C (stereo not shown) [Compound D204] | 100 to 1000 |
| CNC(=O)N1CCc2c(-c3cc(OC)c(CN4CCC(CCN5CCN(c6ccc7nn(C8CCC(=O)NC8=O)c(=O)n7c6)CC5)CC4)c(OC)c3)cn(C)c(=O)c2C1 (stereo not shown) [Compound D57] | 10 to 100 |
| CNC(=O)N1CCc2c(-c3cc(OC)c(CN4CCC5(CC4)CN(C(=O)CCN4CCN(c6ccc7c(c6)C(=O)N(C6CCC(=O)NC6=O)C7=O)CC4)CCO5)c(OC)c3)cn(C)c(=O)c2C1 (stereo not shown) [Compound D175] | 100 to 1000 |
| COc1cc(-c2cn(C)c(=O)c3c2CCN(C(=O)NC2C[C@@H]4CN(CCCCN5CCN(c6ccc7c(c6)C(=O)N(C6CCC(=O)NC6=O)C7=O)CC5)C[C@H]24)C3)cc(OC)c1CN(C)C (stereo partly shown) [Compound D247] | 100 to 1000 |
| CNC(=S)N1CCc2c(-c3cc(OC)c(CN4CCC(CCN5CCN(c6ccc7c(c6)CN(C6CCC(=O)NC6=O)C7=O)CC5)CC4)c(OC)c3)cn(C)c(=O)c2C1 (stereo not shown) [Compound D58] | < 10 |
| CNC(=O)N1CCc2c(-c3cc(OC)c(CN4CC5(CC(N)C5)C4)c(OC)c3)cn(C)c(=O)c2C1 [Compound B22] | ≥ 1000 |
| CNC(=O)N1CCc2c(-c3cc(OC)c(CN4CCC(C(=O)N5CCC6(CC5)CC(Oc5ccc7c(c5)C(=O)N(C5CCC(=O)NC5=O)C7=O)C6)CC4)c(OC)c3)cn(C)c(=O)c2C1 (stereo not shown) [Compound D254] | < 10 |
| COc1cc(-c2cn(C)c(=O)c3c2CCN(C(=O)NCC2CC4CN(CCCCN5CCN(c6ccc7c(c6)C(=O)N(C6CCC(=O)NC6=O)C7=O)CC5)CC4C2)C3)cc(OC)c1CN(C)C (stereo not shown) [Compound D232] | 10 to 100 |
| COc1cc(-c2cn(C)c(=O)c3c2CCN(C(=O)NC2CC4CC2CN4CCCCN2CCN(c4ccc5c(c4)C(=O)N(C4CCC(=O)NC4=O)C5=O)CC2)C3)cc(OC)c1CN(C)C (stereo not shown) [Compound D243] | ≥ 1000 |
| CNC(=O)N1CCc2c(-c3cc(OC)c(CN4CCC(CCCN5CCN(C6CCC(=O)NC6=O)C(=O)C5)CC4)c(OC)c3)cn(C)c(=O)c2C1 (stereo not shown) [Compound D67] | 100 to 1000 |
| CNC(=O)N1CCc2c(-c3cc(OC)c(CN4CC5(CCC(N6Cc7cc8c(cc7C6)C(=O)N(C6CCC(=O)NC6=O)C8=O)CC5)C4)c(OC)c3)cn(C)c(=O)c2C1 (stereo not shown) [Compound D176] | 10 to 100 |
| COc1cc(-c2cn(C)c(=O)c3c2CCN(C(=O)NC2CCC4CN(CCOc5ccc6c(c5)C(=O)N(C5CCC(=O)NC5=O)C6=O)CC42)C3)cc(OC)c1CN(C)C (stereo not shown) [Compound D271] | 10 to 100 |
| CNC(=O)N1CCc2c(-c3cc(OC)c(CN4CCC(CCN5CCN(C67CC8CC(CC(C8)C6)C7)CC5)CC4)c(OC)c3)cn(C)c(=O)c2C1 [Compound D74] | ≥ 1000 |

| Structure (SMILES) | IC50 [nM] |
| --- | --- |
| COc1cc(-c2cn(C)c(=O)c3c2CCN(C(=O)NCCCN2CCC4(CC2)CN(c2ccc5c(c2)C(=O)N(C2CCC(=O)NC2=O)C5=O)C4)C3)cc(OC)c1CN(C)C (stereo not shown) [Compound D246] | < 10 |
| CNC(=O)N1CCc2c(-c3cc(OC)c(CN4CCC(CCN5CCN(c6ccc7nc(C)n(C8CCC(=O)NC8=O)c(=O)c7c6)CC5)CC4)c(OC)c3)cn(C)c(=O)c2C1 (stereo not shown) [Compound D65] | 100 to 1000 |
| CNC(=O)N1CCc2c(-c3cc(OC)c(CN(C)c4ccc5c(c4)C(=O)N(C4CCC(=O)NC4=O)C5=O)c(OC)c3)cn(C)c(=O)c2C1 (stereo not shown) [Compound D112] | < 10 |
| CNC(=O)N1CCc2c(-c3cc(OC)c(CN4CCN(C5CNC5)CC4)c(OC)c3)cn(C)c(=O)c2C1 [Compound B23] | ≥ 1000 |
| CNC(=O)N1CCc2c(-c3cc(OC)c(CN4CCC(CCN(C)C5CCN(c6ccc7c(c6)C(=O)N(C6CCC(=O)NC6=O)C7=O)CC5)CC4)c(OC)c3)cn(C)c(=O)c2C1 (stereo not shown) [Compound D200] | < 10 |
| CNC(=O)N1CCc2c(-c3cc(CN4CCC(CCN5CCN(c6ccc7c(c6)C(=O)N(C6CCC(=O)NC6=O)C7=O)CC5)CC4)cc(OC)c3)cn(C)c(=O)c2C1 (stereo not shown) [Compound D79] | ≥ 1000 |
| CNC(=O)N1CCc2c(-c3cc(OC)c(CN4CC(S(=O)(=O)NCCOc5ccc6c(c5)C(=O)N(C5CCC(=O)NC5=O)C6=O)C4)c(OC)c3)cn(C)c(=O)c2C1 (stereo not shown) [Compound D279] | 100 to 1000 |
| COc1cc(-c2cn(C)c(=O)c3c2CCN(C(=O)NCCN2CC4(CCN4c4ccc5c(c4)C(=O)N(C4CCC(=O)NC4=O)C5=O)C2)C3)cc(OC)c1CN(C)C (stereo not shown) [Compound D192] | 100 to 1000 |
| CNC(=O)N1CCc2c(-c3cc(OC)c(CN4CCC(CN5CCN(c6ccc7c(c6)C(=O)N(C6CCC(=O)NC6=O)C7=O)CC5)C4)c(OC)c3)cn(C)c(=O)c2C1 (stereo not shown) [Compound D169] | < 10 |
| CNC(=O)N1CCc2c(-c3cc(OC)c(CN4CCC(CCN5C(C)CN(c6ccc7c(c6)C(=O)N(C6CCC(=O)NC6=O)C7=O)CC5C)CC4)c(OC)c3)cn(C)c(=O)c2C1 (stereo not shown) [Compound D145] | < 10 |
| CNC(=O)N1Cc2c(-c3cc(OC)c(CN4CCC(CCN5CCN(c6ccc7c(c6)C(=O)N(C6CCC(=O)NC6=O)C7=O)CC5)CC4)c(OC)c3)cn(C)c(=O)c2C1 (stereo not shown) [Compound D299] | < 10 |
| COc1cc(-c2cn(C)c(=O)c3c2CCN(C(=O)NCCN2CCC4(C2)CN(c2ccc5c(c2)C(=O)N(C2CCC(=O)NC2=O)C5=O)C4)C3)cc(OC)c1CN(C)C (stereo not shown) [Compound D189] | 100 to 1000 |
| CNC(=O)N1CCc2c(-c3cc(OC)c(CN4CCN(CCC5CCN(c6ccc7c(c6)C(=O)N(C6CCC(=O)NC6=O)C7=O)CC5)C5(CCC5)C4)c(OC)c3)cn(C)c(=O)c2C1 (stereo not shown) [Compound D95] | < 10 |
| CNC(=O)N1CCc2c(-c3cc(OC)c(CN4CCC(CCN5CCN(c6ccc7c(c6F)C(=O)N(C6CCC(=O)NC6=O)C7=O)CC5)CC4)c(OC)c3)cn(C)c(=O)c2C1 (stereo not shown) [Compound D87] | < 10 |
| COc1cc(-c2cn(C)c(=O)c3c2CCN(C(=O)NCCN2CCC4(CC2)CCN(c2ccc5c(c2)C(=O)N(C2CCC(=O)NC2=O)C5=O)C4)C3)cc(OC)c1CN(C)C (stereo not shown) [Compound D209] | 10 to 100 |
| CNC(=O)N1CCc2c(-c3cc(OC)c(CN4CCC(CCN5CCN(c6ccc7c(c6)C(=O)N(C6CCC(=O)NC6=O)C7)CC5)CC4)c(OC)c3)cn(C)c(=O)c2C1 (stereo not shown) [Compound D69] | < 10 |
| COc1cc(-c2cn(C)c(=O)c3c2CCN(C(=O)NCC2CC4CN(CCCOc5ccc6c(c5)C(=O)N(C5CCC(=O)NC5=O)C6=O)CC4C2)C3)cc(OC)c1CN(C)C (stereo not shown) [Compound D265] | 100 to 1000 |

Same assay, conditions: SYO-1 cells, 6 hours, Table 6A

| Structure (SMILES) | IC50 [nM] |
| --- | --- |
| COc1cc(-c2cn(C)c(=O)c3c2CCN(C(=O)NCCCCCNc2cccc4c2C(=O)N(C2CCC(=O)NC2=O)C4=O)C3)cc(OC)c1CN(C)C (stereo not shown) [Compound D11, 5-(4-((dimethylamino)methyl)-3,5-dimethoxyphenyl)-N-(5-((2-(2,6-dioxopiperidin-3-yl)-1,3-dioxoisoindolin-4-yl)amino)pentyl)-7-methyl-8-oxo-3,4,7,8-tetrahydro-2,7-naphthyridine-2 (1H)-carboxamide formic acid] | > 10 |

Same assay, conditions: SYO-1 cells, 6 hours, Table 6C

| Structure (SMILES) | IC50 [nM] |
| --- | --- |
| COc1cc(-c2cn(C)c(=O)c3c2COC3)cc(OC)c1CN1CCC2(CC1)CN(c1ccc3c(c1)CN(C1CCC(=O)NC1=O)C3=O)C2 (stereo not shown) [Compound D359] | < 10 |
| COc1cc(-c2cn(C)c(=O)c3c2CCC3)cc(OC)c1CN1CCC(CN2CCC3(CC2)CN(c2ccc4c(c2)C(=O)N(C2CCC(=O)NC2=O)C4)C3)CC1 (stereo not shown) [Compound D353] | < 10 |
| COc1cc(-c2cn(C)c(=O)c3c2CCN(C(=O)NCC(F)F)C3)cc(OC)c1CN1CCN(CCC2CCN(c3ccc4c(c3)CN(C3CCC(=O)NC3=O)C4=O)CC2)CC12CCC2 (stereo not shown) [Compound D322] | < 10 |
| COc1cc(-c2cn(C)c(=O)c3c2CCN(C(=O)NCC(F)F)C3)cc(OC)c1CN1CCN(CCC2CCN(c3ccc4c(c3)C(=O)N(C3CCC(=O)NC3=O)C4)CC2)CC1 (stereo not shown) [Compound D344] | < 10 |
| COc1cc(-c2cn(C)c(=O)c3c2COC3)cc(OC)c1CN1CC(C#Cc2ccc3c(c2)CN(C2CCC(=O)NC2=O)C3=O)C1 (stereo not shown) [Compound D368] | < 10 |
| CNC(=O)N1CCc2c(-c3cc(OC)c(CN4CCN(CCC5CCN(c6ccc7c(c6)C(=O)N(C6CCC(=O)NC6=O)C7)CC5)CC45CCC5)c(OC)c3)cn(C)c(=O)c2C1 (stereo not shown) [Compound D332] | < 10 |
| COc1cc(-c2cn(C)c(=O)c3c2COC3)cc(OC)c1CN1CCN(c2ccc3c(c2)C(=O)N(C2CCC(=O)NC2=O)C3=O)CC1 (stereo not shown) [Compound D373] | < 10 |
| COc1cc(-c2cn(C)c(=O)c3c2COC3)cc(OC)c1CN1CCC(C#Cc2ccc3c(c2)C(=O)N(C2CCC(=O)NC2=O)C3)CC1 (stereo not shown) [Compound D370] | < 10 |
| CNC(=O)N1CCc2c(-c3cc(OC)c(CN4[C@H](C)CN(CCC5CCN(c6ccc7c(c6)CN(C6CCC(=O)NC6=O)C7=O)CC5)C[C@H]4C)c(OC)c3)cn(C)c(=O)c2C1 (stereo partly shown) [Compound D325] | < 10 |
| COc1cc(-c2cn(C)c(=O)c3c2CCC3)cc(OC)c1-c1ccc2c(c1)C(=O)N(C1CCC(=O)NC1=O)C2 (stereo not shown) [Compound D374] | < 10 |
